Source: PubChem BioAssay AID2060900 (Molecular Pharmacology Branch, DTP, NCI, 2025)
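Also: spheroids also contain HUVEC endothelial cells and mesenchymal stem cells as stroma; compound exposure lasted seven days before the viability read.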

These molecules were tested on 521955-158-R2-J5-PDC complex spheroids, viability (assay: Anticancer human tumor 521955-158-R2-J5-PDC patient-derived pancreatic carcinoma cell line growth inhibition [RAS]). Conditions: second compound 0.1 µM; first compound 0.1 µM; hits give low values.
Outline: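 Multi-cell-type spheroids: tumor cells plus HUVEC endothelial cells and mesenchymal stem cells. RAS-pathway inhibitors were combined with targeted agents, each dosed in half-log steps down from clinical Cmax, or from 10 microM when Cmax was unknown.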
Molecule `NC1c2ccccc2OC12CCN(c1cnc3c(N4CCCc5ncccc54)n[nH]c3n1)CC2` (stereo unspecified) + C=CC(=O)N1CCN(c2nc(OCC3CCCN3C)nc3c(F)c(-c4nc(N)cc(C)c4C(F)(F)F)c(Cl)cc23)C(C)C1 has a viability, T/C of 79.8%.

Same assay, conditions: second compound 0.1 µM; first compound 0.316 µM; hits give low values
With `CC1(O)CCCC1n1c(=O)c(C(F)F)cc2cnc(NC3CCN(S(C)(=O)=O)CC3)nc21` (stereo unspecified) + C=CC(=O)N1CCN(c2nc(OCC3CCCN3C)nc3c(F)c(-c4nc(N)cc(C)c4C(F)(F)F)c(Cl)cc23)C(C)C1 the viability, T/C was 75.2%.
In the case of `CCC(CC)c1cc(NC2CCC(N)C2)n2nccc2n1` (stereo unspecified) + C=CC(=O)N1CCN(c2nc(OCC3CCCN3C)nc3c(F)c(-c4nc(N)cc(C)c4C(F)(F)F)c(Cl)cc23)C(C)C1, the viability, T/C is reported as 142%.
`CCN1CCN(Cc2ccc(Nc3ncc(F)c(-c4cc(F)c5nc(C)n(C(C)C)c5c4)n3)nc2)CC1` + C=CC(=O)N1CCN(c2nc(OCC3CCCN3C)nc3c(F)c(-c4nc(N)cc(C)c4C(F)(F)F)c(Cl)cc23)C(C)C1 was tested, and the viability, T/C was 108%.
Molecule `Cc1nc(N2CCC3(CC2)COC(C)C3N)c(CO)nc1Sc1ccnc(N)c1Cl` (stereo unspecified) + C=CC(=O)N1CCN(c2nc(OCC3CCCN3C)nc3c(F)c(-c4nc(N)cc(C)c4C(F)(F)F)c(Cl)cc23)C(C)C1 has a viability, T/C of 70.5%.
Molecule `NC1c2ccccc2OC12CCN(c1cnc3c(N4CCCc5ncccc54)n[nH]c3n1)CC2` (stereo unspecified) + C=CC(=O)N1CCN(c2nc(OCC3CCCN3C)nc3c(F)c(-c4nc(N)cc(C)c4C(F)(F)F)c(Cl)cc23)C(C)C1 has a viability, T/C of 55.1%.

Same assay, conditions: second compound 0.1 µM; first compound 1 µM; hits give low values
`CC1(O)CCCC1n1c(=O)c(C(F)F)cc2cnc(NC3CCN(S(C)(=O)=O)CC3)nc21` (stereo unspecified) + C=CC(=O)N1CCN(c2nc(OCC3CCCN3C)nc3c(F)c(-c4nc(N)cc(C)c4C(F)(F)F)c(Cl)cc23)C(C)C1 showed a viability, T/C of 109%.
`CCC(CC)c1cc(NC2CCC(N)C2)n2nccc2n1` (stereo unspecified) + C=CC(=O)N1CCN(c2nc(OCC3CCCN3C)nc3c(F)c(-c4nc(N)cc(C)c4C(F)(F)F)c(Cl)cc23)C(C)C1 showed a viability, T/C of 120%.
With `CCN1CCN(Cc2ccc(Nc3ncc(F)c(-c4cc(F)c5nc(C)n(C(C)C)c5c4)n3)nc2)CC1` + C=CC(=O)N1CCN(c2nc(OCC3CCCN3C)nc3c(F)c(-c4nc(N)cc(C)c4C(F)(F)F)c(Cl)cc23)C(C)C1 the viability, T/C was 112%.
For `Cc1nc(N2CCC3(CC2)COC(C)C3N)c(CO)nc1Sc1ccnc(N)c1Cl` (stereo unspecified) + C=CC(=O)N1CCN(c2nc(OCC3CCCN3C)nc3c(F)c(-c4nc(N)cc(C)c4C(F)(F)F)c(Cl)cc23)C(C)C1, the viability, T/C was 63.2%.
In the case of `NC1c2ccccc2OC12CCN(c1cnc3c(N4CCCc5ncccc54)n[nH]c3n1)CC2` (stereo unspecified) + C=CC(=O)N1CCN(c2nc(OCC3CCCN3C)nc3c(F)c(-c4nc(N)cc(C)c4C(F)(F)F)c(Cl)cc23)C(C)C1, the viability, T/C is reported as 57.7%.

Same assay, conditions: second compound 0.1 µM; first compound 3.16 µM; hits give low values
For `CC1(O)CCCC1n1c(=O)c(C(F)F)cc2cnc(NC3CCN(S(C)(=O)=O)CC3)nc21` (stereo unspecified) + C=CC(=O)N1CCN(c2nc(OCC3CCCN3C)nc3c(F)c(-c4nc(N)cc(C)c4C(F)(F)F)c(Cl)cc23)C(C)C1, the viability, T/C was 111%.
`CCC(CC)c1cc(NC2CCC(N)C2)n2nccc2n1` (stereo unspecified) + C=CC(=O)N1CCN(c2nc(OCC3CCCN3C)nc3c(F)c(-c4nc(N)cc(C)c4C(F)(F)F)c(Cl)cc23)C(C)C1 showed a viability, T/C of 10.2%.
For `Cc1nc(N2CCC3(CC2)COC(C)C3N)c(CO)nc1Sc1ccnc(N)c1Cl` (stereo unspecified) + C=CC(=O)N1CCN(c2nc(OCC3CCCN3C)nc3c(F)c(-c4nc(N)cc(C)c4C(F)(F)F)c(Cl)cc23)C(C)C1, the viability, T/C was 63%.
`NC1c2ccccc2OC12CCN(c1cnc3c(N4CCCc5ncccc54)n[nH]c3n1)CC2` (stereo unspecified) + C=CC(=O)N1CCN(c2nc(OCC3CCCN3C)nc3c(F)c(-c4nc(N)cc(C)c4C(F)(F)F)c(Cl)cc23)C(C)C1 gave a viability, T/C of 51.8%.

Same assay, conditions: second compound 0.1 µM; first compound 10 µM; hits give low values
Work on `CC1(O)CCCC1n1c(=O)c(C(F)F)cc2cnc(NC3CCN(S(C)(=O)=O)CC3)nc21` (stereo unspecified) + C=CC(=O)N1CCN(c2nc(OCC3CCCN3C)nc3c(F)c(-c4nc(N)cc(C)c4C(F)(F)F)c(Cl)cc23)C(C)C1 yielded a viability, T/C of 13%.
In the case of `CCC(CC)c1cc(NC2CCC(N)C2)n2nccc2n1` (stereo unspecified) + C=CC(=O)N1CCN(c2nc(OCC3CCCN3C)nc3c(F)c(-c4nc(N)cc(C)c4C(F)(F)F)c(Cl)cc23)C(C)C1, the viability, T/C is reported as 9.75%.
`Cc1nc(N2CCC3(CC2)COC(C)C3N)c(CO)nc1Sc1ccnc(N)c1Cl` (stereo unspecified) + C=CC(=O)N1CCN(c2nc(OCC3CCCN3C)nc3c(F)c(-c4nc(N)cc(C)c4C(F)(F)F)c(Cl)cc23)C(C)C1 showed a viability, T/C of 54.1%.
`NC1c2ccccc2OC12CCN(c1cnc3c(N4CCCc5ncccc54)n[nH]c3n1)CC2` (stereo unspecified) + C=CC(=O)N1CCN(c2nc(OCC3CCCN3C)nc3c(F)c(-c4nc(N)cc(C)c4C(F)(F)F)c(Cl)cc23)C(C)C1 gave a viability, T/C of 58.8%.

Same assay, conditions: second compound 0.316 µM; first compound 0.00316 µM; hits give low values
`CCN1CCN(Cc2ccc(Nc3ncc(F)c(-c4cc(F)c5nc(C)n(C(C)C)c5c4)n3)nc2)CC1` + C=CC(=O)N1CCN(c2nc(OCC3CCCN3C)nc3c(F)c(-c4nc(N)cc(C)c4C(F)(F)F)c(Cl)cc23)C(C)C1 was tested, and the viability, T/C was 145%.

Same assay, conditions: second compound 0.316 µM; first compound 0.01 µM; hits give low values
Molecule `CCN1CCN(Cc2ccc(Nc3ncc(F)c(-c4cc(F)c5nc(C)n(C(C)C)c5c4)n3)nc2)CC1` + C=CC(=O)N1CCN(c2nc(OCC3CCCN3C)nc3c(F)c(-c4nc(N)cc(C)c4C(F)(F)F)c(Cl)cc23)C(C)C1 has a viability, T/C of 109%.

Same assay, conditions: second compound 0.316 µM; first compound 0.0316 µM; hits give low values
`CC1(O)CCCC1n1c(=O)c(C(F)F)cc2cnc(NC3CCN(S(C)(=O)=O)CC3)nc21` (stereo unspecified) + C=CC(=O)N1CCN(c2nc(OCC3CCCN3C)nc3c(F)c(-c4nc(N)cc(C)c4C(F)(F)F)c(Cl)cc23)C(C)C1 showed a viability, T/C of 123%.
Work on `CCC(CC)c1cc(NC2CCC(N)C2)n2nccc2n1` (stereo unspecified) + C=CC(=O)N1CCN(c2nc(OCC3CCCN3C)nc3c(F)c(-c4nc(N)cc(C)c4C(F)(F)F)c(Cl)cc23)C(C)C1 yielded a viability, T/C of 145%.
`CCN1CCN(Cc2ccc(Nc3ncc(F)c(-c4cc(F)c5nc(C)n(C(C)C)c5c4)n3)nc2)CC1` + C=CC(=O)N1CCN(c2nc(OCC3CCCN3C)nc3c(F)c(-c4nc(N)cc(C)c4C(F)(F)F)c(Cl)cc23)C(C)C1 gave a viability, T/C of 80.9%.
`Cc1nc(N2CCC3(CC2)COC(C)C3N)c(CO)nc1Sc1ccnc(N)c1Cl` (stereo unspecified) + C=CC(=O)N1CCN(c2nc(OCC3CCCN3C)nc3c(F)c(-c4nc(N)cc(C)c4C(F)(F)F)c(Cl)cc23)C(C)C1 gave a viability, T/C of 100%.
`NC1c2ccccc2OC12CCN(c1cnc3c(N4CCCc5ncccc54)n[nH]c3n1)CC2` (stereo unspecified) + C=CC(=O)N1CCN(c2nc(OCC3CCCN3C)nc3c(F)c(-c4nc(N)cc(C)c4C(F)(F)F)c(Cl)cc23)C(C)C1 showed a viability, T/C of 75.4%.
